Assay: mn = molality of the nth substance listed, in mol/kg
Conditions: Liquid

[Cl-].[Na+] [sodium chloride] + O
Conditions | mass density [kg/m3]
332.77 K, 16012 kPa, m1 = 1 | 1028.34
332.83 K, 10001 kPa, m1 = 1 | 1025.96
332.88 K, 12003 kPa, m1 = 1 | 1026.78
332.96 K, 18010 kPa, m1 = 1 | 1029.12
333.11 K, 14007 kPa, m1 = 1 | 1027.52
333.13 K, 10014 kPa, m1 = 2 | 1060.45
333.13 K, 12007 kPa, m1 = 3 | 1090.92
333.13 K, 14002 kPa, m1 = 3 | 1091.64
333.16 K, 18002 kPa, m1 = 3 | 1093.07
333.17 K, 15999 kPa, m1 = 2 | 1062.63
333.18 K, 18011 kPa, m1 = 2 | 1063.39
333.19 K, 10002 kPa, m1 = 3 | 1089.97
333.19 K, 12008 kPa, m1 = 2 | 1061.17
333.2 K, 14003 kPa, m1 = 2 | 1061.9
333.21 K, 16006 kPa, m1 = 3 | 1092.36
333.52 K, 15999 kPa, m1 = 4 | 1123.12
333.54 K, 12004 kPa, m1 = 4 | 1121.22
333.55 K, 18008 kPa, m1 = 4 | 1124.3
333.56 K, 14008 kPa, m1 = 4 | 1122.36
333.59 K, 10007 kPa, m1 = 4 | 1120.38
352.11 K, 10000 kPa, m1 = 4 | 1109.5
352.14 K, 18001 kPa, m1 = 4 | 1112.67
352.16 K, 12008 kPa, m1 = 4 | 1109.8
352.17 K, 14050 kPa, m1 = 4 | 1111.1
352.19 K, 16005 kPa, m1 = 4 | 1111.53
352.65 K, 12002 kPa, m1 = 1 | 1015.47
353.13 K, 18026 kPa, m1 = 2 | 1052.55
353.14 K, 12005 kPa, m1 = 2 | 1050.19
353.16 K, 14002 kPa, m1 = 3 | 1079.82
353.16 K, 14003 kPa, m1 = 2 | 1050.95
353.19 K, 16007 kPa, m1 = 2 | 1051.71
353.2 K, 9995 kPa, m1 = 1 | 1014.63
353.2 K, 13999 kPa, m1 = 1 | 1016.06
353.23 K, 9996 kPa, m1 = 2 | 1049.38
353.23 K, 10007 kPa, m1 = 3 | 1078.28
353.23 K, 16008 kPa, m1 = 3 | 1080.53
353.27 K, 12003 kPa, m1 = 3 | 1079.02
353.28 K, 17998 kPa, m1 = 1 | 1017.65
353.28 K, 18002 kPa, m1 = 3 | 1081.24
372.7 K, 18017 kPa, m1 = 4 | 1100.7
372.71 K, 14005 kPa, m1 = 4 | 1099
372.72 K, 10019 kPa, m1 = 4 | 1097.2
372.75 K, 16043 kPa, m1 = 4 | 1100.12
372.76 K, 12007 kPa, m1 = 4 | 1098.5
372.96 K, 16007 kPa, m1 = 1 | 1003.93
373 K, 18001 kPa, m1 = 1 | 1004.74
373.03 K, 12005 kPa, m1 = 1 | 1002.25
373.03 K, 14001 kPa, m1 = 1 | 1003.21
373.1 K, 11999 kPa, m1 = 2 | 1038.08
373.11 K, 10005 kPa, m1 = 3 | 1066.26
373.11 K, 17997 kPa, m1 = 3 | 1069.36
373.16 K, 10001 kPa, m1 = 1 | 1001.31
373.16 K, 14004 kPa, m1 = 3 | 1067.77
373.17 K, 12008 kPa, m1 = 3 | 1067.01
373.2 K, 14002 kPa, m1 = 2 | 1038.84
373.22 K, 16005 kPa, m1 = 3 | 1068.52
392.6 K, 10002 kPa, m1 = 1 | 986.9
392.65 K, 12008 kPa, m1 = 1 | 987.5
392.65 K, 14005 kPa, m1 = 1 | 988.82
392.65 K, 16001 kPa, m1 = 1 | 989.54
392.65 K, 18001 kPa, m1 = 1 | 990.45
392.77 K, 14002 kPa, m1 = 4 | 1088.52
392.78 K, 15999 kPa, m1 = 4 | 1089.3
392.79 K, 10006 kPa, m1 = 4 | 1086.96
392.81 K, 12002 kPa, m1 = 4 | 1087.71
392.82 K, 18008 kPa, m1 = 4 | 1090.43
393.09 K, 14006 kPa, m1 = 3 | 1054.75
393.17 K, 10001 kPa, m1 = 3 | 1053.22
393.17 K, 16002 kPa, m1 = 3 | 1055.54
393.17 K, 18005 kPa, m1 = 2 | 1027.22
393.18 K, 10003 kPa, m1 = 2 | 1023.83
393.2 K, 11995 kPa, m1 = 2 | 1024.64
393.22 K, 13999 kPa, m1 = 2 | 1025.54
393.23 K, 16003 kPa, m1 = 2 | 1026.34
393.24 K, 12008 kPa, m1 = 3 | 1053.85
393.26 K, 17997 kPa, m1 = 3 | 1056.25
412.86 K, 10007 kPa, m1 = 4 | 1072.35
412.92 K, 12005 kPa, m1 = 4 | 1073.15
412.94 K, 14004 kPa, m1 = 4 | 1073.97
413.01 K, 16003 kPa, m1 = 4 | 1074.76
413.06 K, 18002 kPa, m1 = 4 | 1075.53
413.11 K, 17998 kPa, m1 = 2 | 1012.96
413.12 K, 14007 kPa, m1 = 2 | 1011.33
413.12 K, 16004 kPa, m1 = 1 | 973.21
413.14 K, 10008 kPa, m1 = 2 | 1009.53
413.14 K, 16003 kPa, m1 = 2 | 1012.21
413.14 K, 18004 kPa, m1 = 3 | 1041.53
413.15 K, 18001 kPa, m1 = 1 | 974.15
413.16 K, 10006 kPa, m1 = 1 | 970.45
413.17 K, 12009 kPa, m1 = 1 | 971.23
413.17 K, 16001 kPa, m1 = 3 | 1040.63
413.18 K, 12003 kPa, m1 = 2 | 1010.61
413.18 K, 13998 kPa, m1 = 1 | 972.24
413.2 K, 12005 kPa, m1 = 3 | 1038.72
413.23 K, 10007 kPa, m1 = 3 | 1038.23
